Measurements: patent US9040523B2, “Antifungal 5,6-dihydro-4H-pyrrolo[1,2-α][1,4]-benzodiazepines and 6H-pyrrolo[1,2-α][1,4]benzodiazepines substituted with benzene derivatives” (JANSSEN PHARMACEUTICA NV, priority 2010, dated 2015)
Counter-ions that a name gives are not always drawn.

What was measured:
Type in all cases: cell-based
[1] = system: Aspergillus fumigatus B42928; experiment: Antifungal activity in vitro (resazurin susceptibility screen), Inf. E; settings: Aspergillus fumigatus B42928, 27 °C, 48 hours, resa time 17 hours; for IC50: read-out: Inf. E pIC50 (converted)
Protocol: (§1) The standard susceptibility screen was performed in 96-well plates (U-bottom, Greiner Bio-One). […] These serial dilutions (10 n1) were then spotted onto test-plates that could be stored in the dark at 4° C. for a maximum period of 2 weeks. […] The different fungal species/isolates (Table 3a) were cryopreserved and 1/1000 diluted in medium just prior to use. A standard inoculum of 200 μl containing 10^3 colony-forming unit (cfu) was then added to each well. A positive control (100% growth=fungal culture without antifungal) and a negative control (0% growth ═RPMI-MOPS medium) were included on each plate. […] [table]

[2] = system: Candida parapsilosis B66126; experiment: Antifungal activity in vitro (resazurin susceptibility screen), Inf. D; settings: Candida parapsilosis B66126, 37 °C, 24 hours, resa time 4 hours; for IC50: Lodderomyces parapsilosis, read-out: Inf. D pIC50 (converted)
Protocol: (§2) The standard susceptibility screen was performed in 96-well plates (U-bottom, Greiner Bio-One). […] These serial dilutions (10 n1) were then spotted onto test-plates that could be stored in the dark at 4° C. for a maximum period of 2 weeks. […] A standard inoculum of 200 μl containing 10^3 colony-forming unit (cfu) was then added to each well. A positive control (100% growth=fungal culture without antifungal) and a negative control (0% growth ═RPMI-MOPS medium) were included on each plate.

[3] = system: Trichophyton mentagrophytes B70554; experiment: Antifungal activity in vitro (resazurin susceptibility screen), Inf. G; settings: 27 °C, 7 days, resa time 24 hours; for Inf. G pIC50: Trichophyton mentagrophytes B70554; for IC50: Trichophyton mentagrophytes, B70554, Trichophyton mentagrophytes B70554, read-out: Inf. G pIC50 (converted)
Protocol: as §2

[4] = system: Cryptococcus neoformans B66663; experiment: Antifungal activity in vitro (resazurin susceptibility screen), Inf. F; settings: 37 °C, 24 hours, resa time 4 hours; for Inf. F pIC50: Cryptococcus neoformans B66663; for IC50: Cryptococcus neoformans, B66663, Cryptococcus neoformans B66663, read-out: Inf. F pIC50 (converted)
Protocol: as §1

[5] = system: Sporothrix schenkii B62482; experiment: Antifungal activity in vitro (resazurin susceptibility screen), Inf. A; settings: 27 °C, 4 days, resa time 24 hours, highest in-test concentration 64 μM; for Inf. A pIC50: Sporothrix schenkii B62482; for IC50: Sporothrix, B62482, Sporothrix schenkii B62482, read-out: Inf. A pIC50 (converted)
Protocol: as §1

Microsporum canis B68128 = experiment: Antifungal activity in vitro (resazurin susceptibility screen), Inf. B; settings: 27 °C, 9 days, resa time 24 hours; for Inf. B pIC50: Microsporum canis B68128; for IC50: Microsporum canis, B68128, Microsporum canis B68128, read-out: Inf. B pIC50 (converted)
Protocol: as §2

[6] = system: Trichophyton rubrum B68183; experiment: Antifungal activity in vitro (resazurin susceptibility screen), Inf. C; settings: Trichophyton rubrum B68183, 27 °C, 7 days, resa time 24 hours; for IC50: read-out: Inf. C pIC50 (converted)
Protocol: as §1

Compound | Inf. E pIC50 [1] | Inf. D pIC50 [2] | Inf. G pIC50 [3] | Inf. F pIC50 [4] | Inf. A pIC50 [5] | Inf. B pIC50 (Microsporum canis B68128) | Inf. C pIC50 [6] | IC50 [1] | IC50 [2] | IC50 [4] | IC50 [5] | IC50 (Microsporum canis B68128) | IC50 [6] | IC50 [3]
CC(O)c1ccc(C2NCc3c(ccc(Cl)c3Cl)-n3cccc32)cc1.Cl (stereo not drawn) [Compound 2, 4-(7,8-dichloro-5,6-dihydro-4H-pyrrolo[1,2-a][1,4]benzodiazepin-4-yl)-alpha-methyl-benzenemethanol .HCl] | <4.2 | <4.2 | <4.2 | <4.2 | <4.2 | 4.7 | <4.2 | – | – | – | – | – | – | –
CC(O)c1ccc(C2NCc3cc(Cl)cc(Cl)c3-n3cccc32)cc1.Cl (stereo not drawn) [Compound 3, 4-(8,10-dichloro-5,6-dihydro-4H-pyrrolo[1,2-a][1,4]benzodiazepin-4-yl)-alpha-methyl-benzenemethanol .HCl] | <4.2 | <4.2 | 4.4 | 4.7 | <4.2 | 5.0 | 6 | – | – | – | – | – | – | –
CC(=O)c1cccc(C2NCc3c(Cl)cccc3-n3cccc32)c1 (stereo not shown) [Compound 4, 1-[3-(7-chloro-5,6-dihydro-4H-pyrrolo[1,2-a][1,4]benzodiazepin-4-yl)phenyl]-ethanone] | – | – | – | – | – | – | – | > 63.1 µM | > 63.1 µM | > 63.1 µM | > 63.1 µM | 10 µM | 5.01 µM | –
Br.CC(=O)c1ccc(C2NCc3c(Cl)cccc3-n3cccc32)cc1 (stereo not shown) [Compound 6, 1-[4-(7-chloro-5,6-dihydro-4H-pyrrolo[1,2-a][1,4]benzodiazepin-4-yl)phenyl]-ethanone .HBr] | 4.5 | <4.2 | – | <4.2 | 4.7 | 6.2 | 6.4 | – | – | – | – | – | – | –
CC(=O)c1cc(C2NCc3c(Cl)cccc3-n3cccc32)ccc1F.Cl (stereo not shown) [Compound 7, 1-[5-(7-chloro-5,6-dihydro-4H-pyrrolo[1,2-a][1,4]benzodiazepin-4-yl)-2-fluorophenyl]-ethanone .HCl] | <4.2 | <4.2 | 5.2 | <4.2 | <4.2 | 5.1 | 6.0 | – | – | – | – | – | – | –
CC(=O)c1ccc(C2NCc3c(ccc(Cl)c3Cl)-n3cccc32)cc1.Cl (stereo not shown) [Compound 9, 1-[4-(7,8-dichloro-5,6-dihydro-4H-pyrrolo[1,2-a][1,4]benzodiazepin-4-yl)phenyl]-ethanone .HCl] | <4.2 | <4.2 | 4.5 | 4.5 | 5.0 | 5.6 | 5.7 | – | – | – | – | – | – | –
CC(=O)c1cccc(C2NCc3c(Cl)cc(Cl)cc3-n3cccc32)c1.Cl (stereo not shown) [Compound 10, 1-[3-(7,9-dichloro-5,6-dihydro-4H-pyrrolo[1,2-a][1,4]benzodiazepin-4-yl)phenyl]-ethanone .HCl] | <4.2 | <4.2 | 5.2 | <4.2 | <4.2 | 5.3 | 5.7 | – | – | – | – | – | – | –
CC(=O)c1ccc(C2NCc3c(Cl)cc(Cl)cc3-n3cccc32)cc1.Cl (stereo not shown) [Compound 12, 1-[4-(7,9-dichloro-5,6-dihydro-4H-pyrrolo[1,2-a][1,4]benzodiazepin-4-yl)phenyl]-ethanone .HCl] | <4.2 | <4.2 | 5.1 | <4.2 | <4.2 | 4.9 | 5.7 | – | – | – | – | – | – | –
CS(=O)(=O)c1cccc(C2=NCc3c(Cl)cccc3-n3cccc32)c1 [Compound 27] | <4.2 | <4.2 | 5.1 | 4.2 | <4.2 | 5.2 | 5.1 | – | – | – | – | – | – | –
CS(=O)(=O)c1ccc(C2=NCc3c(Cl)cc(Cl)cc3-n3cccc32)cc1 [Compound 30, 7,9-dichloro-4-[4-(methylsulfonyl)phenyl]-6H-pyrrolo[1,2-a][1,4]benzodiazepine] | – | – | – | – | – | – | – | 63.1 µM | > 63.1 µM | 15.8 µM | 50.1 µM | 3.98 µM | 2 µM | 6.31 µM
OCCc1ccc(C2NCc3c(Cl)cc(Cl)cc3-n3cccc32)cc1 (stereo not shown) [Compound 34, 4-(7,9-dichloro-5,6-dihydro-4H-pyrrolo[1,2-a][1,4]benzodiazepin-4-yl)-benzeneethanol .HCl] | – | – | – | – | – | – | – | > 63.1 µM | > 63.1 µM | 31.6 µM | > 63.1 µM | 2 µM | 12.6 µM | 20 µM
Cl.OCCc1ccc(C2NCc3c(Cl)cccc3-n3cccc32)cc1 (stereo not shown) [Compound 35, 4-(7-chloro-5,6-dihydro-4H-pyrrolo[1,2-a][1,4]benzodiazepin-4-yl)-benzeneethanol .HCl] | <4.2 | <4.2 | 4.9 | 4.3 | <4.2 | 4.4 | 5.1 | – | – | – | – | – | – | –
Cl.OCCc1ccc(C2NCc3cc(Cl)cc(Cl)c3-n3cccc32)cc1 (stereo not shown) [Compound 36, 4-(8,10-dichloro-5,6-dihydro-4H-pyrrolo[1,2-a][1,4]benzodiazepin-4-yl)-benzeneethanol .HCl] | <4.2 | <4.2 | 4.7 | 4.6 | <4.2 | 4.3 | 4.5 | – | – | – | – | – | – | –
Cl.OCCc1ccc(C2NCc3c(ccc(Cl)c3Cl)-n3cccc32)cc1 (stereo not shown) [Compound 37, 4-(7,8-dichloro-5,6-dihydro-4H-pyrrolo[1,2-a][1,4]benzodiazepin-4-yl)-benzeneethanol .HCl] | 4.4 | <4.2 | 4.4 | 5.0 | 4.8 | <4.2 | 4.5 | – | – | – | – | – | – | –
Cl.OCCc1ccc(C2NCc3c(Cl)ccc(Cl)c3-n3cccc32)cc1 (stereo not shown) [Compound 38, 4-(7,10-dichloro-5,6-dihydro-4H-pyrrolo[1,2-a][1,4]benzodiazepin-4-yl)-benzeneethanol .HCl] | <4.2 | <4.2 | 4.7 | 4.7 | <4.2 | 5.7 | 5.1 | – | – | – | – | – | – | –
